For test [1], the target named is T1, intracellular CDK8 (Homo sapiens (Human), UniProt P49336). Kind of test: Cellular CDK8 inhibition assay, western blot P-STAT1 (S727) in IFN-γ treated SW620 cells. It is filed as cell-based. The note with it: SW620, IFNγ treated, semiquantitative; read-out: SW620 P-STAT1(S727) w IFNγ. As for the experimental part: Compounds can be screened for their ability to inhibit intracellular CDK8 using a western blot assay to detect phosphorylation of the CDK8 substrate STAT1 (S727) in IFN-γ treated cells. SW620 cells are plated at 1*10^6 cells per well in 6-well plates (Solmeglas 13118) in RPMI media (Sigma-Aldrich R6504) supplemented with 10% foetal bovine serum (Sigma-Aldrich F7524), Penicillin/Streptomycin solution diluted 1:100 (Gibco 15070-063), and fungizone (Gibco, 15290-018), and allowed to adhere overnight at 37° C. in 5% CO2. Compounds are then added to the cell media from a final concentration of 10 μM in 10-fold serial dilutions and the cells are incubated at 37° C. in 5% CO2. After 1 hour, IFNγ (R&D systems Ref. RYD-285-IF-100) is added to a final concentration of […]. After 3 hours of treatment with IFNγ, the cells are washed in PBS, lysed adding 100 μl of protein lysis buffer (62.5 mM Tris pH 6.8 al 6.25%, 2% SDS y 10% glycerol) incubation 10 minutes at room temperature and heating at 95° C. 10 min. The protein content of the lysates is determined by DC protein assay (Biorad, Ref. 5000116). The proteins are resolved by SDS-PAGE and transferred to nitrocellulose membrane (VWR International eurolab, Ref. 732-4007). The membranes are incubated overnight at 4° C. with antibodies specific for total STAT1 (BD Transduction laboratory #610115), phosphoserine-727 STAT1 (Cell Signaling Ref. 9177) they are washed and then incubated with IRDye800 conjugated anti-mouse (Pierce/Cultek, 35521) and Alexa Fluor 680 goat anti-rabbit IgG secondary antibodies (Invitrogen, A21076). The bands are visualized and quantified using an Odyssey infrared imaging system (Li-Cor Biosciences). The percentage of phosphorylated STAT1 vs total STAT1 in cells treated with IFNγ is taken as hundred percent of phosphorylation. The percentage of STAT1 phosphorylation is finally plotted against concentration for each compound and EC50s for intracellular CDK8 inhibition are calculated using ActivityBase from IDBS.

Test [2] concerns SW620. Kind of test: In vitro cell proliferation assay (CellTiter-Glo), SW620. It is filed as cell-based, human. The note with it: Homo sapiens, SW-620; growth inhibition, semiquantitative; read-out: GI50 SW620. (In ATP-based viability assays light output follows the ATP content of the culture.)
Test [3] deals with T1, intracellular CDK8. Put plainly: Endogenous phosphoSTAT1 inhibition in SW620 cells growing in 10% FBS. The note with it: semiquantitative, read-out: SW620 P-STAT1(S727). It is filed as cell-based. The method, boiled down:
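SW620 cells in 10% FBS treated 8 h with compound, then lysed and phospho-STAT1 measured relative to total STAT1.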

The test system of test [4] is SW620 cells. Put plainly: Colony formation assay. It is filed as cell-based, human. Conditions: SW620 cells treated 11 days. As for the experimental part:
The in vitro potency of the compounds was measured by colony formation assays. SW620 cells in logarithmic growth phase are plated at 800 cells per well in 6-well plates (Solmeglas 13118) in RPMI media (Sigma-Aldrich R6504) supplemented with 10% foetal bovine serum (Sigma-Aldrich F7524), Penicillin/Streptomycin solution diluted 1:100 (Gibco 15070-063), and fungizone (Gibco, 15290-018), and allowed to adhere overnight at 37° C. in 5% CO2. Compounds are then added to the cell media from a final concentration of 10 μM in 10-fold serial dilutions and the cells are incubated at 37° C. in 5% CO2. Every three days the medium is changed by fresh medium and compounds are added again. After 11 days, colonies are washed with PBS and fixed in 0.5% crystal violet (Sigma-Aldrich Ref. V5265), 6% glutaraldehide (Sigma-Aldrich Ref. G5882) for 30 minutes. After extensive washing, colonies are dissolved in 2 ml of 10% glacial acetic acid (Sigma-Aldrich Ref. 537020) and absorbance at 590 nm is measured in the Victor 1420 Multilabel Counter (Perkin Elmer). The absorbance in cells treated with DMSO is taken as hundred percent of proliferation. The percentage of proliferation is finally plotted against concentration for each compound and EC50s for colony formation inhibition are calculated using ActivityBase from IDBS.

Test [5] has as its target CDK8/Cyclin C (Homo sapiens (Human), UniProt P49336). Kind of test: CDK8/Cyclin C binding assay (LanthaScreen Eu-Kinase Binding Assay). Conditions: binding assay. As for the experimental part:
The enzyme has been purchase from Invitrogen (PV4402) as a dimer of full-length His-tagged recombinant human proteins.
Assays were performed in 384-well plates. The final read out was generated using an EnVision plate reader (Perkin-Elmer).
(In TR-FRET formats the signal depends on donor and acceptor labels being close together.)

In test [6] the target is CDK19/Cyclin C (Homo sapiens (Human), UniProt Q9BWU1). Put plainly: CDK19/Cyclin C binding assay (LanthaScreen Eu-Kinase Binding Assay). The note with it: read-out: CDK19-CYCC IC50. The method in brief: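 LanthaScreen TR-FRET tracer-displacement format with 2 nM Cdk19-Cyclin C, 20 nM tracer and 2 nM Eu-anti-GST antibody. The buffer was 50 mM HEPES pH 7.5, 10 mM MgCl2, 1 mM EGTA, 0.01% Brij-35, with 1% DMSO final. Compounds were tested as 1:3 serial dilutions and incubated for 60 min at 25 °C.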

The test system of test [7] is MDA-MB-231. Kind of test: In vitro cell proliferation assay (CellTiter-Glo), MDA-MB-231. It is filed as cell-based. Conditions: Homo sapiens, MDA-MB-231; growth inhibition, semiquantitative; read-out: GI50 MDA-MB-231.
For test [8], the system named is Molm13. Kind of test: In vitro cell proliferation assay (CellTiter-Glo), Molm13. It is filed as cell-based. Conditions: Homo sapiens, MOLM-13; growth inhibition, semiquantitative; read-out: GI50 Molm13.
The subject of test [9] is MV4:11. Put plainly: In vitro cell proliferation assay (CellTiter-Glo), MV4:11. It is filed as cell-based. The note with it: Homo sapiens, MV4-11; growth inhibition, semiquantitative; read-out: GI50 MV4:11.
Test [10] relates to H3T3ph in tumoral cells from colon, breast and cervix. Conditions: dose dependent; cited from earlier work.
For test [11], the system named is MDAMB231. Kind of test: Combination assay, MDAMB231. It is filed as cell-based. The note with it: Homo sapiens, MDA-MB-231; MDAMB231, chemotherapeutic alone; read-out: Chemo GI50. As for the experimental part:
(§1) The combination index (CI) of combinations of certain example compounds and various chemotherapeutic agents in the CellTitetI-Glo® in vitro cell proliferation assays may be tested. A combination index score is calculated by the Chou and Talalay method (CalcuSyn software, Biosoft). The strength of synergy is scored using the ranking system Chou and Talalay: CI less than 0.8 indicates synergy, CI between 0.8 and 1.2 indicates additivity and CI greater than 1.2 indicates antagonism.
(§2) The EC50 values of representative combinations are also calculated. The individually measured EC50 values of the chemotherapeutic agent and the example compounds are compared to the EC50 value of the combination. The cell lines are characterised by tumor type. Combination assays are performed as described in: “Pim 1 kinase inhibitor ETP-45299 suppresses cellular proliferation and synergizes with PI3K inhibition”. Blanco-Aparicio, Carmen; Collazo, Ana Maria Garcia; Oyarzabal, Julen; Leal, Juan F.; Albaran, Maria Isabel; Lima, Francisco Ramos; Pequeno, Belen; Ajenjo, Nuria; Becerra, Mercedes; Alfonso, Patricia; Reymundo, Maria Isabel; Palacios, Irene; Mateos, Genoveva; Quinones, Helena; Corrionero, Ana; Carnero, Amancio; Pevarello, Paolo; Lopez, Ana Rodriguez; Fominaya, Jesus; Pastor, Joaquin; Bischoff, James R. Cancer Letters (Shannon, Ireland) 2011, 300(2), 145-153

Test [12] has as its system SKMEL19. Kind of test: Combination assay, SKMEL19. It is filed as cell-based. The note with it: Homo sapiens, SK-MEL19; SKMEL19, chemotherapeutic alone; read-out: Chemo GI50. As for the experimental part:
as §1, §2

The test system of test [13] is A549. Kind of test: Combination assay, A549. It is filed as cell-based. Conditions: Homo sapiens; A549, chemotherapeutic alone; read-out: Chemo GI50. The protocol:
as §1, §2

The subject of test [14] is SW620. Kind of test: Combination assay, SW620. It is filed as cell-based, human. Conditions: Homo sapiens, SW-620; SW620, chemotherapeutic alone; read-out: Chemo GI50. The method in brief: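 Cells treated with example compounds combined with chemotherapeutic agents, proliferation read by CellTiter-Glo. Combination index from the Chou–Talalay method (CI <0.8 synergy, 0.8–1.2 additivity, >1.2 antagonism); EC50 of the combination also derived alongside single-agent EC50s.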

For test [15], the system named is BXPC-3. Put plainly: Combination assay, BXPC-3. It is filed as cell-based. Conditions: Homo sapiens; BXPC-3, chemotherapeutic alone; read-out: Chemo GI50. As for the experimental part:
as §1, §2

In test [16] the target is Haspin kinase (Homo sapiens (Human), UniProt Q8TF76). Put plainly: Haspin kinase assay (ADP-Glo). Conditions: ATP 150 μM. It is filed as biochemical. The method, boiled down: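 ADP-Glo luminescence measured the intrinsic ATPase activity, without peptide substrate, of the GST-tagged human Haspin kinase domain (20 nM) at 150 μM ATP. Reactions ran 60 min at 30 °C in HEPES pH 7.4 buffer with 10 mM MgCl2 and 1% DMSO. Inhibition was calculated against no-compound controls across 1:3 dilution series.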

Test [17] deals with intracellular HASPIN (Homo sapiens (Human), UniProt Q8TF76). Put plainly: Cellular HASPIN inhibition assay, western blot phospho H3T3 in synchronized SW620 cells. It is filed as cell-based. Conditions: semiquantitative, read-out: SW620 PH3(T3) in synchronized cells. As for the experimental part:
Compounds can be screened for their ability to inhibit intracellular HASPIN using a western blot assay to detect phosphorylation of the HASPIN substrate H3T3 in synchronized cells. SW620 cells are plated at 200000 cells per well in 6-well plates (Solmeglas 13118) in RPMI media (Sigma-Aldrich R6504) supplemented with 10% foetal bovine serum (Sigma-Aldrich F7524), Penicillin/Streptomycin solution diluted 1:100 (Gibco 15070-063), and fungizone (Gibco, 15290-018), and allowed to adhere overnight at 37° C. in 5% CO2. Cells are then treated 16 h hours with Nocadazole (Sigma-Aldrich M1404) at 250 ng/ml to arrest them in mitosis. Proteasoma inhibitor MG132 (Sigma-Aldrich C2211) is added to a final concentration of […] to keep cells arrested in mitosis. Compounds are then added to the cell media from a final concentration of 10 μM in 10-fold serial dilutions and the cells are incubated at 37° C. in 5% CO2. After 1 hour and 30 minutes of treatment with the compounds, the cells are washed in PBS, lysed adding 100 μl of protein lysis buffer (62.5 mM Tris pH 6.8 al 6.25%, 2% SDS y 10% glycerol) incubation 10 minutes at room temperature and heating at 95° C. 10 min. The protein content of the lysates is determined by DC protein assay (Biorad, Ref. 5000116). The proteins are resolved by SDS-PAGE and transferred to nitrocellulose membrane (VWR International eurolab, Ref. 732-4007). The membranes are incubated overnight at 4° C. with antibodies specific for total H3 (Millipore #07424), phosphothreonine-3 H3 (Cell Signaling Ref. 14269) they are washed and then incubated with IRDye800 conjugated anti-mouse (Pierce/Cultek, 35521) and Alexa Fluor 680 goat anti-rabbit IgG secondary antibodies (Invitrogen, A21076). The bands are visualized and quantified using an Odyssey infrared imaging system (Li-Cor Biosciences). The percentage of phosphorylated H3 vs total H3 in synchronized cells is taken as hundred percent of phosphorylation. The percentage of H3 phosphorylation is finally plotted against concentration for each compound and EC50s for intracellular HASPIN inhibition are calculated using ActivityBase from IDBS.
A general note: In western blotting, separated proteins are transferred to a membrane and probed.

The source of these data is patent US10208056B2, “Condensed tricyclic compounds as protein kinase inhibitors” (FUNDACIÓN DEL SECTOR PÚBLICO ESTATAL CENTRO NACIONAL DE …, priority 2015, dated 2019).

The term GI50 denotes the concentration that inhibits growth by half. One may read the IC50 as the midpoint of a concentration-inhibition curve.

T1 sequence (P49336 whole entry): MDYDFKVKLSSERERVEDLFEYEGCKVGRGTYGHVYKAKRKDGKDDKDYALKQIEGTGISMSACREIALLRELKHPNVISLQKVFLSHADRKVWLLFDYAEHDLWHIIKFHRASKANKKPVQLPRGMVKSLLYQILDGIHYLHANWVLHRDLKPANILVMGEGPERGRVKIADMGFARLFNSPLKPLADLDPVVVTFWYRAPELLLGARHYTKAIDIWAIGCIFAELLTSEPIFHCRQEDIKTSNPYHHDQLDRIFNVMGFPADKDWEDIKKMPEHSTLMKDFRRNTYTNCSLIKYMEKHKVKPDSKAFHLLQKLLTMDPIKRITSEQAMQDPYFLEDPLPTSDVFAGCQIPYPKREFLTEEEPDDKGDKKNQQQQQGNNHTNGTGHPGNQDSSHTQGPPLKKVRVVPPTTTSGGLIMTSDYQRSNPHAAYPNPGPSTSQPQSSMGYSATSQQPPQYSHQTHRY
T1 sequence (P24863 whole entry partner): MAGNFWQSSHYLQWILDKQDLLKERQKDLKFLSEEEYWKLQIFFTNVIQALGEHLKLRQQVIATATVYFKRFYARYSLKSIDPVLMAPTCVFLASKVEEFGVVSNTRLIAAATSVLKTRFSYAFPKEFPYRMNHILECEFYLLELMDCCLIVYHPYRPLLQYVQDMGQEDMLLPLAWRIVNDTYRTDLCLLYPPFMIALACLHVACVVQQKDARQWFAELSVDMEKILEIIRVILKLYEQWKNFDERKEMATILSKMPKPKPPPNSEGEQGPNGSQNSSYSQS
T1 sequence (Q93074 whole entry partner): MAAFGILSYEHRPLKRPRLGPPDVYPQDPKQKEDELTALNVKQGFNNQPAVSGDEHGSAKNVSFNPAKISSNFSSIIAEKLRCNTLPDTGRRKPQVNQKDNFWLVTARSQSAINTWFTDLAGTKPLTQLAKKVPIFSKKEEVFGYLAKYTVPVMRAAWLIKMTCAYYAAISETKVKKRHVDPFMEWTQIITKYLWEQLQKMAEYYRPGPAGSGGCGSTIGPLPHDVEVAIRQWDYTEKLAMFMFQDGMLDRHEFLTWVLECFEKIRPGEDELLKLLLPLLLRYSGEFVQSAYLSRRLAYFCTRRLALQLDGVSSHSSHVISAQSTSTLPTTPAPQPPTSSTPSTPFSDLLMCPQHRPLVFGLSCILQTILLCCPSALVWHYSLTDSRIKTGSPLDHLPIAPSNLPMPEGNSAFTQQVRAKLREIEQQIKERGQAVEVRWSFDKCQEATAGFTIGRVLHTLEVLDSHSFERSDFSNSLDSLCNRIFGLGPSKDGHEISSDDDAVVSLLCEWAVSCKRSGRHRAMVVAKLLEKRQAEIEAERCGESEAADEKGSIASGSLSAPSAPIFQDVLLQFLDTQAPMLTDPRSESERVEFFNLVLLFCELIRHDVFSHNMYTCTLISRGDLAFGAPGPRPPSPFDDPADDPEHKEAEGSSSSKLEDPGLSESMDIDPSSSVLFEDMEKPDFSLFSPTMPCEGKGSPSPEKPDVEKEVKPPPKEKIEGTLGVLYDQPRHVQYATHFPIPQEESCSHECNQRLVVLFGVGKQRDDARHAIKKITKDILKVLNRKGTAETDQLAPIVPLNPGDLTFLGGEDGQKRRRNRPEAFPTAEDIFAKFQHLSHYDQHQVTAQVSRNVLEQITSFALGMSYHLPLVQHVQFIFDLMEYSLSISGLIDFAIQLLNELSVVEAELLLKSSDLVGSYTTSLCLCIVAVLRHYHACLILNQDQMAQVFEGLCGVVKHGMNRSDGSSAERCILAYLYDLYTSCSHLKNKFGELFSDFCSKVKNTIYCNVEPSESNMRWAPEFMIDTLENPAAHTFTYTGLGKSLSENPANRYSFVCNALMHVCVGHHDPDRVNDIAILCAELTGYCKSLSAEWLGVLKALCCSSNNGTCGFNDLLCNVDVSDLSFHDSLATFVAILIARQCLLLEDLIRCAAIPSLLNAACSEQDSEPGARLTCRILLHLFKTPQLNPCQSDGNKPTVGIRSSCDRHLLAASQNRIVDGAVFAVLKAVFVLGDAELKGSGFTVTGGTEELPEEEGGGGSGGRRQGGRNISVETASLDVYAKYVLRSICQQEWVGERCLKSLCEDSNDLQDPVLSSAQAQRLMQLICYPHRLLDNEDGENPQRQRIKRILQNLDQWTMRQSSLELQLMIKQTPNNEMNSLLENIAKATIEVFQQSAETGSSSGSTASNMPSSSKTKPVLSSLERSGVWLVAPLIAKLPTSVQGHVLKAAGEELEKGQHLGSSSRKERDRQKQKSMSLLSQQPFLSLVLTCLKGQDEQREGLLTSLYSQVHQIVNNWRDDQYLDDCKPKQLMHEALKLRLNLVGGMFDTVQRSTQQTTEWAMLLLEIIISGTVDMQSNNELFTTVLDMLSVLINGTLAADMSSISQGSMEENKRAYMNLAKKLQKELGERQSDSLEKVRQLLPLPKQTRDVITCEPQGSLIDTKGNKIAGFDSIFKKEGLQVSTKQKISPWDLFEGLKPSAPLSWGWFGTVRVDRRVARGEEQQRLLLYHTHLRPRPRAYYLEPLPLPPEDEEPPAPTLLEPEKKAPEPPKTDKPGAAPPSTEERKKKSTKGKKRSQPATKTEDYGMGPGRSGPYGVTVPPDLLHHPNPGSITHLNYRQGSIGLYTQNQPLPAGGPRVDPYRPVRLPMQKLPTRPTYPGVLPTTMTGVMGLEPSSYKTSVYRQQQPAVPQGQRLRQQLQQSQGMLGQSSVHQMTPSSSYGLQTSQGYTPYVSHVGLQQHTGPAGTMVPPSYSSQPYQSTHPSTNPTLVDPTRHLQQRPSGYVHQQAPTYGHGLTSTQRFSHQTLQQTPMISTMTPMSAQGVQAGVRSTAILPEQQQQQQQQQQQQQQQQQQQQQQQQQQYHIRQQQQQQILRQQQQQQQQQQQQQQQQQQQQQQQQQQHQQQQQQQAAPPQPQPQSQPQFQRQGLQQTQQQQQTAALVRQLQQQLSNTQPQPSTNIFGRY
Chain of CDK19/Cyclin C (Q9BWU1 whole entry): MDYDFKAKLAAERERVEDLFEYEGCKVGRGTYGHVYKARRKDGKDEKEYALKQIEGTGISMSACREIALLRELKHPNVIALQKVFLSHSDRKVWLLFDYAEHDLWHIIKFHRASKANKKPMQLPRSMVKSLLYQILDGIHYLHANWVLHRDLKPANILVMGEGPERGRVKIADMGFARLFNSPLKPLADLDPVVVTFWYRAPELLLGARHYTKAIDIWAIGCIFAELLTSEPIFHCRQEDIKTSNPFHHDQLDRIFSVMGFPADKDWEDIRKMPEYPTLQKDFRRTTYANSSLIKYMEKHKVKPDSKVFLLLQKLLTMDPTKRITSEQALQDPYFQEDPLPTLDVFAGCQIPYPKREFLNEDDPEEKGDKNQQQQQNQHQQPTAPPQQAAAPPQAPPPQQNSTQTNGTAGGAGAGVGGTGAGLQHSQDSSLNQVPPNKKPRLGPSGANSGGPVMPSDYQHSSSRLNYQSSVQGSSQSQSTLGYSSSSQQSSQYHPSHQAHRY
Chain of CDK19/Cyclin C (P24863 whole entry partner): as the sequence (P24863 whole entry partner) above
Chain of CDK8/Cyclin C (P49336 whole entry): as the sequence (P49336 whole entry) above
Chain of CDK8/Cyclin C (P24863 whole entry partner): as the sequence (P24863 whole entry partner) above
Chain of intracellular HASPIN (Q8TF76 whole entry): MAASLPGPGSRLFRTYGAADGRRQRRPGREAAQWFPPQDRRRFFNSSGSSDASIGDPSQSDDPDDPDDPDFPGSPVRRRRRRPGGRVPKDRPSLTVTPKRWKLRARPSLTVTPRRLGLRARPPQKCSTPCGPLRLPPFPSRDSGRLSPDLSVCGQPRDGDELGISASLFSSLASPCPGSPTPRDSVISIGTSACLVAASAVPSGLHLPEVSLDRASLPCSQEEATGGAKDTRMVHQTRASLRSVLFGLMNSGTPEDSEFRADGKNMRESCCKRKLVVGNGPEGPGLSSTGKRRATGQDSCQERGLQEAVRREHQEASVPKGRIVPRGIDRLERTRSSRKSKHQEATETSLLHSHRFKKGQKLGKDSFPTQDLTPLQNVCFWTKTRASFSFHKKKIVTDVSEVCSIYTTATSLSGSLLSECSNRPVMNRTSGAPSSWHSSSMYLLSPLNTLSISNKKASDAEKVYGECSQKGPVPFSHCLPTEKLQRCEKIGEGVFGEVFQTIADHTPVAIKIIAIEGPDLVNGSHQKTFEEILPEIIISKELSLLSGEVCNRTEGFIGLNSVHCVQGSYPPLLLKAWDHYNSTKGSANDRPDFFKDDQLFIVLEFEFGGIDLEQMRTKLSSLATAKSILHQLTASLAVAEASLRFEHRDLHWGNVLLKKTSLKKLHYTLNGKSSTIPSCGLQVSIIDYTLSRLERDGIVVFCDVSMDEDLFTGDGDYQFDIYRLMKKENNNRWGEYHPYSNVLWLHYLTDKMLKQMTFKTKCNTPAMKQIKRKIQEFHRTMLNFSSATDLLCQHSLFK
Chain of Haspin kinase (Q8TF76 484-798): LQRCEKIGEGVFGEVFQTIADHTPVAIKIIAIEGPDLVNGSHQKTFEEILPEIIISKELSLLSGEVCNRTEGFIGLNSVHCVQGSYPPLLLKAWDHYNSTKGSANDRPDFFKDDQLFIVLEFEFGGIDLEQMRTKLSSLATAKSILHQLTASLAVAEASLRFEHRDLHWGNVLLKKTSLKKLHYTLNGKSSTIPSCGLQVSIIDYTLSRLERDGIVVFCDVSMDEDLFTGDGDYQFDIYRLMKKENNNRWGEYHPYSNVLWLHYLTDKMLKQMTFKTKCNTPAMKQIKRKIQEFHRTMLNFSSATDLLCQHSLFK

In the case of `NC(=O)c1cc2c([nH]1)-c1ccncc1O[C@H]2C1CCCCC1` (single isomer, unassigned) [Example 70], the EC50 in test [1] and in [3] was below 500 nM throughout. Also, the GI50 was 1000 to 10000 nM in test [2], 10000 to 100000 nM in test [7], 1000 to 10000 nM in test [8] and below 1000 nM in test [9]. In addition, the “effect in colony forming assay” value in [4] is recorded as “dose-dependent effect”. For the same compound, the figures for the half-maximal inhibitory concentration (IC50) in test [5] and in test [6] were 8.5 nM and 7.14 nM, respectively.
On to `CCCNc1ccc2ncc(-c3ccc4[nH]ncc4c3)n2n1` [CHR-6494], for which, in test [10], the “reduction of H3T3ph” value is recorded as “reduce H3T3ph”.
Consider `CN(NC(=O)CC(=O)NN(C)C(=S)c1ccccc1)C(=S)c1ccccc1` [Elesclomol, elesclomol, reference compound], for which the GI50 was found to be 250 nM in [11]; 250 nM in test [12]; 250 nM in test [13]; 250 nM in [14]; 62 nM in test [15].
As to `COc1ccccc1-c1c2c(n(CCF)c1C(N)=O)-c1ccncc1OC2(C)C` [Example 73], the EC50 in test [1] is below 500 nM; in test [4] (Homo sapiens, SW-620, 264 h, read-out: mean EC50, colony forming assay) it was 5430 ± 297 nM; in test [17], 500 to 10000 nM. Further, the IC50 in test [16] came out at 1120 nM; in [5], 139 nM; in test [6] it was 97.3 nM. Also, the “effect in colony forming assay” value in [4] is “dose-dependent effect”.
